Article PMC11500612, “Differential effects of inosine monophosphate dehydrogenase (IMPDH/GuaB) inhibition in Acinetobacter baumannii and Escherichia coli” (Journal of Bacteriology, 2024)

Experiments:
Assay type in all cases: biochemical
[1] = molecular target: T1, GuaB^Ec (Escherichia coli, UniProt P0ADG7); assay: NADH production, absorbance at […] nm
T1 sequence (P0ADG7 1-488): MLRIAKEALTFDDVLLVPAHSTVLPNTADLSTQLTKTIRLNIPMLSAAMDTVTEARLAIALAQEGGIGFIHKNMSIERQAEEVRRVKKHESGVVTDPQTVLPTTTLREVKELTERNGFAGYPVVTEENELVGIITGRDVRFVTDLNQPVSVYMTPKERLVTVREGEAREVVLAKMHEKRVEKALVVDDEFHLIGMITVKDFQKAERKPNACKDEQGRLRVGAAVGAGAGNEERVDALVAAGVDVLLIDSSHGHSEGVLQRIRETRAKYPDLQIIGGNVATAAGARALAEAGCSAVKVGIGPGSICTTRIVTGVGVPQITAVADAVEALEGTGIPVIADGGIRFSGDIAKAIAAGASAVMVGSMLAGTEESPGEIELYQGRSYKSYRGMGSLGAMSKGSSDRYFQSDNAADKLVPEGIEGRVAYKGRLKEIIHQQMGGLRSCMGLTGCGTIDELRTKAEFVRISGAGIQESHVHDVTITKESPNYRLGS

[2] = molecular target: T2, GuaB^Ab (Acinetobacter baumannii, UniProt D0CF46); assay: NADH production, NAD(P)H-Glo luminescence
T2 construct: recombinant A. baumannii GuaB
T2 sequence (D0CF46 1-488): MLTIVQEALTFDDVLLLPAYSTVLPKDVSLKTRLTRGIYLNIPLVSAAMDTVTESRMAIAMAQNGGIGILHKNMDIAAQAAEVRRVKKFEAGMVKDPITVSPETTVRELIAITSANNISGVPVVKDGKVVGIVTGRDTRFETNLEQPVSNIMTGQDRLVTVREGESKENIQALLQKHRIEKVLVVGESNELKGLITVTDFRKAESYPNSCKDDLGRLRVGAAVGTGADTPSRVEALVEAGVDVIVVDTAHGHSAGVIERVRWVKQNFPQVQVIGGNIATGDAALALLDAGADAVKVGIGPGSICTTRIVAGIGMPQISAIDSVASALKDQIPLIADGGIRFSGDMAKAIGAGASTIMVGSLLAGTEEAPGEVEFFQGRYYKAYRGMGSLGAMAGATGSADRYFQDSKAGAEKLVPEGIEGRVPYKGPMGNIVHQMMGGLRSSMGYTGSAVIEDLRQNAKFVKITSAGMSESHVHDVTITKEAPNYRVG
Description: NADH production, NAD(P)H-Glo luminescence on GuaB^Ab

[3] = molecular target: T3, hIMPDH2 (Homo sapiens, UniProt P12268); assay: enzyme inhibition, method not given
T3 construct: gene IMPDH2; not described in the main text
T3 sequence (P12268 2-514): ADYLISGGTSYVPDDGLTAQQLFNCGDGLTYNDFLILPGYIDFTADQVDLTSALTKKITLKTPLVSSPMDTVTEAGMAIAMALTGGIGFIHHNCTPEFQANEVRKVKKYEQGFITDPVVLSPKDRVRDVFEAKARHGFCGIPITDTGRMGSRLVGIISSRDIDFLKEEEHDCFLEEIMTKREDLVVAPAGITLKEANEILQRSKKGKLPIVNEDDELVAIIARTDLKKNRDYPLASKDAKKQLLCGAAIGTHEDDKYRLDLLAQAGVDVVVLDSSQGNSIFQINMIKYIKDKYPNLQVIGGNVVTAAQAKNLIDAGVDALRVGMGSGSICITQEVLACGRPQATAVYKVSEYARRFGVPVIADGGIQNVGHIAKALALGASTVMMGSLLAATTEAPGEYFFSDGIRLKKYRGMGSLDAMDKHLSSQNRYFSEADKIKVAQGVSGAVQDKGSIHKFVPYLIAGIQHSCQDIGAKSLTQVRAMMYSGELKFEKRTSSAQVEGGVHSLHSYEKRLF
Description: enzyme inhibition, method not described in main text on hIMPDH2

[4] = molecular target: GuaB^Sa (Staphylococcus aureus, UniProt Q2FJM6); assay: NADH production, NAD(P)H-Glo luminescence
GuaB^Sa, sequence (Q2FJM6 whole entry): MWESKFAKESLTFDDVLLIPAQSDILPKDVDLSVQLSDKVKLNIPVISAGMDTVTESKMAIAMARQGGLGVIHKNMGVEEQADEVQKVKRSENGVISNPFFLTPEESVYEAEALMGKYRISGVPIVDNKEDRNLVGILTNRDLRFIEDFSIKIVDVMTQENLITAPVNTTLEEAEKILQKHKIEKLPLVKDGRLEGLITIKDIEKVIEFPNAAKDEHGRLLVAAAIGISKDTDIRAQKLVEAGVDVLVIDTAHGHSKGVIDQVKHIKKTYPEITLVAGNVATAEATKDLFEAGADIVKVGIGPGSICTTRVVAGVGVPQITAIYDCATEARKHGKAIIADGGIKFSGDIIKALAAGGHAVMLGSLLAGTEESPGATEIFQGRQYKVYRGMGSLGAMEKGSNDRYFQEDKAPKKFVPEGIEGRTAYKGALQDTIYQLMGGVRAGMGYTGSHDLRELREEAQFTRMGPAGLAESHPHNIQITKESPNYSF
Description: NADH production, NAD(P)H-Glo luminescence on GuaB^Sa

Structure (SMILES) | IC50 [1] [nM] | IC50 [2] [nM] | IC50 [3] [nM] | IC50 [4] [nM]
C[C@H](Nc1ccc(-n2cccn2)cc1)C(=O)Nc1ccc2sc(-c3ccncc3)nc2c1 [G5] | 569 | 0.394 | > 50000 | 0.511
C[C@H](Nc1ccc(-n2cncn2)cc1)C(=O)Nc1ccc2sc(-c3cc[n+]([O-])cc3)nc2c1 [G4] | 903 | 0.617 | > 50000 | 0.62
C[C@H](Nc1ccc2ncc(CO)cc2c1)C(=O)Nc1ccc(Cl)c(N2CCOCC2)c1 [G6] | 5.9 | 0.564 | > 50000 | 0.801
C[C@H](Nc1ccc2ncc(CO)cc2c1)C(=O)Nc1ccc(Br)nc1 [G3] | 91 | 0.975 | > 50000 | 2.45
C[C@H](Nc1ccc2ncc(CO)cc2c1)C(=O)Nc1ccc(Cl)c(N(C)C)c1 [G2] | 15.8 | 0.666 | > 50000 | 3.5
